Where “and” joins values, the source holds several entries; their conditions need not be identical. Identical values can stand only once. Calls of active or inactive are those of the source. How the source made its calls: active means viability on the fitted dose curve at most 10% of control; inactive means the rest.
System: 233499-124-R-J3-PDC complex spheroid viability, % test/control
Experiment: Anticancer human tumor 233499-124-R-J3-PDC patient-derived colon adenocarcinoma cell line growth inhibition
Settings: for viability, T/C: stronger effect = lower value
Procedure, shortened: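 Complex spheroids of tumor cells with HUVEC and human MSCs, exposed to iadademstat combined with other agents. Each agent tested in half-log steps from near clinical Cmax (else 10 microM top), DMSO ≤0.25%.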

[1] = curve of first compound, second compound 0.1 µM
[2] = curve of first compound, second compound 0.316 µM
[3] = curve of first compound, second compound 1 µM
[4] = curve of first compound, second compound 3.16 µM
[5] = curve of first compound, second compound 10 µM
[6] = second compound 0.1 µM, first compound 0.00949 µM
[7] = second compound 0.1 µM, first compound 0.03 µM
[8] = second compound 0.1 µM, first compound 0.0949 µM
[9] = second compound 0.1 µM, first compound 0.3 µM
[10] = second compound 0.316 µM, first compound 0.00949 µM
[11] = second compound 0.316 µM, first compound 0.03 µM
[12] = second compound 0.316 µM, first compound 0.0949 µM
[13] = second compound 0.316 µM, first compound 0.3 µM
[14] = second compound 1 µM, first compound 0.00949 µM
[15] = second compound 1 µM, first compound 0.03 µM
[16] = second compound 1 µM, first compound 0.0949 µM
[17] = second compound 1 µM, first compound 0.3 µM
[18] = second compound 3.16 µM, first compound 0.00949 µM
[19] = second compound 3.16 µM, first compound 0.03 µM
[20] = second compound 3.16 µM, first compound 0.0949 µM
[21] = second compound 3.16 µM, first compound 0.3 µM
[22] = second compound 10 µM, first compound 0.00949 µM
[23] = second compound 10 µM, first compound 0.03 µM
[24] = second compound 10 µM, first compound 0.0949 µM
[25] = second compound 10 µM, first compound 0.3 µM
[26] = second compound 0.1 µM, first compound 0.000949 µM
[27] = second compound 0.1 µM, first compound 0.003 µM
[28] = second compound 0.316 µM, first compound 0.000949 µM
[29] = second compound 0.316 µM, first compound 0.003 µM
[30] = second compound 1 µM, first compound 0.000949 µM
[31] = second compound 1 µM, first compound 0.003 µM
[32] = second compound 3.16 µM, first compound 0.000949 µM
[33] = second compound 3.16 µM, first compound 0.003 µM
[34] = second compound 10 µM, first compound 0.000949 µM
[35] = second compound 10 µM, first compound 0.003 µM
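Wherever IC50 is given: spheroids exposed to agents for one week before readout.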
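Wherever viability, T/C is given: spheroids exposed to agents for one week before readout.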

Structure (SMILES): CCN(c1cc(-c2ccc(CN3CCOCC3)cc2)cc(C(=O)NCc2c(C)cc(C)[nH]c2=O)c1C)C1CCOCC1 + NC1CCC(NC2CC2c2ccccc2)CC1
- IC50 [1]: > 3 µM
- IC50 [2]: > 3 µM
- IC50 [3]: > 3 µM
- IC50 [4]: > 3 µM
- IC50 [5]: > 3 µM
- viability, T/C [6]: 99.9%
- viability, T/C [7]: 117%
- outcome [8]: inactive
- viability, T/C [9]: 121%
- viability, T/C (second compound 0.1 µM, first compound 0.949 µM): 101%
- viability, T/C (second compound 0.1 µM, first compound 3 µM): 126%
- viability, T/C [10]: 101%
- viability, T/C [11]: 110%
- viability, T/C [12]: 113%
- viability, T/C [13]: 102%
- viability, T/C (second compound 0.316 µM, first compound 0.949 µM): 118%
- viability, T/C (second compound 0.316 µM, first compound 3 µM): 135%
- viability, T/C [14]: 80.9%
- viability, T/C [15]: 77.9%
- viability, T/C [16]: 80.4%
- viability, T/C [17]: 96.2%
- viability, T/C (second compound 1 µM, first compound 0.949 µM): 88.5%
- viability, T/C (second compound 1 µM, first compound 3 µM): 122%
- viability, T/C [18]: 75.5%
- viability, T/C [19]: 95.2%
- viability, T/C [20]: 85.8%
- viability, T/C [21]: 87.4%
- viability, T/C (second compound 3.16 µM, first compound 0.949 µM): 76.2%
- viability, T/C (second compound 3.16 µM, first compound 3 µM): 104%
- viability, T/C [22]: 86%
- viability, T/C [23]: 68%
- viability, T/C [24]: 69.4%
- viability, T/C [25]: 74.9%
- viability, T/C (second compound 10 µM, first compound 0.949 µM): 83.5%
- viability, T/C (second compound 10 µM, first compound 3 µM): 90.2%

Structure (SMILES): Nc1ccn(C2OC(CO)C(O)C2(F)F)c(=O)n1 (centres undefined)
- viability, T/C (compound 0.000949 µM): 69.7% and 82.2%
- viability, T/C (compound 0.003 µM): 36.4% and 84.6%
- viability, T/C (compound 0.00949 µM): 40.4% and 80.5%
- viability, T/C (compound 0.03 µM): 26.6% and 68.5%
- viability, T/C (compound 0.0949 µM): 31% and 48.6%
- viability, T/C (compound 0.3 µM): 54.3% and 46.2%

Structure (SMILES): O=C(C=Cn1cnc(-c2cc(C(F)(F)F)cc(C(F)(F)F)c2)n1)NNc1cnccn1 + NC1CCC(NC2CC2c2ccccc2)CC1
- IC50 [1]: 0.102 µM
- IC50 [2]: 0.144 µM
- IC50 [3]: 0.0846 µM
- IC50 [4]: 0.13 µM
- IC50 [5]: 0.0846 µM
- viability, T/C (second compound 0.1 µM, first compound 0.00316 µM): 106%
- viability, T/C (second compound 0.1 µM, first compound 0.01 µM): 102%
- viability, T/C (second compound 0.1 µM, first compound 0.0316 µM): 99.5%
- viability, T/C (second compound 0.1 µM, first compound 0.1 µM): 49.5%
- viability, T/C (second compound 0.1 µM, first compound 0.316 µM): 31.1%
- viability, T/C (second compound 0.1 µM, first compound 1 µM): 19.8%
- viability, T/C (second compound 0.316 µM, first compound 0.00316 µM): 119%
- viability, T/C (second compound 0.316 µM, first compound 0.01 µM): 109%
- viability, T/C (second compound 0.316 µM, first compound 0.0316 µM): 97.4%
- viability, T/C (second compound 0.316 µM, first compound 0.1 µM): 59.2%
- viability, T/C (second compound 0.316 µM, first compound 0.316 µM): 28.2%
- viability, T/C (second compound 0.316 µM, first compound 1 µM): 11.7%
- viability, T/C (second compound 1 µM, first compound 0.00316 µM): 115%
- viability, T/C (second compound 1 µM, first compound 0.01 µM): 106%
- viability, T/C (second compound 1 µM, first compound 0.0316 µM): 106%
- viability, T/C (second compound 1 µM, first compound 0.1 µM): 40%
- viability, T/C (second compound 1 µM, first compound 0.316 µM): 30.9%
- viability, T/C (second compound 1 µM, first compound 1 µM): 12%
- viability, T/C (second compound 3.16 µM, first compound 0.00316 µM): 99.3%
- viability, T/C (second compound 3.16 µM, first compound 0.01 µM): 90.8%
- viability, T/C (second compound 3.16 µM, first compound 0.0316 µM): 91.8%
- viability, T/C (second compound 3.16 µM, first compound 0.1 µM): 54.9%
- viability, T/C (second compound 3.16 µM, first compound 0.316 µM): 27.8%
- viability, T/C (second compound 3.16 µM, first compound 1 µM): 14.2%
- viability, T/C (second compound 10 µM, first compound 0.00316 µM): 96.8%
- viability, T/C (second compound 10 µM, first compound 0.01 µM): 97.3%
- viability, T/C (second compound 10 µM, first compound 0.0316 µM): 87.3%
- viability, T/C (second compound 10 µM, first compound 0.1 µM): 43.2%
- viability, T/C (second compound 10 µM, first compound 0.316 µM): 22%
- viability, T/C (second compound 10 µM, first compound 1 µM): 15.8%

Structure (SMILES): CCc1c2c(nc3ccc(O)cc13)-c1cc3c(c(=O)n1C2)COC(=O)[C@]3(O)CC + NC1CC1c1ccc(-c2cccc(O)c2)cc1
- IC50 [1]: 0.0256 µM
- IC50 [2]: 0.0226 µM
- IC50 [3]: 0.0245 µM
- IC50 [4]: 0.0276 µM
- IC50 [5]: 0.0503 µM
- viability, T/C [26]: 88%
- viability, T/C [27]: 122%
- viability, T/C [6]: 90.8%
- viability, T/C [7]: 44.2%
- viability, T/C [8]: 27.7%
- viability, T/C [9]: 29.5%
- viability, T/C [28]: 103%
- viability, T/C [29]: 112%
- viability, T/C [10]: 88.1%
- viability, T/C [11]: 38.3%
- viability, T/C [12]: 25.2%
- viability, T/C [13]: 30.3%
- viability, T/C [30]: 70.4%
- viability, T/C [31]: 112%
- viability, T/C [14]: 101%
- viability, T/C [15]: 40.6%
- viability, T/C [16]: 19.6%
- viability, T/C [17]: 30.4%
- viability, T/C [32]: 77.6%
- viability, T/C [33]: 109%
- viability, T/C [18]: 98.6%
- viability, T/C [19]: 46.4%
- viability, T/C [20]: 31.5%
- viability, T/C [21]: 24.6%
- viability, T/C [34]: 65.1%
- viability, T/C [35]: 88.5%
- viability, T/C [22]: 105%
- viability, T/C [23]: 59.7%
- viability, T/C [24]: 43.8%
- viability, T/C [25]: 32.4%

Structure (SMILES): CC1COCCN1c1cc(C2(S(C)(=N)=O)CC2)nc(-c2ccnc3[nH]ccc23)n1 (centres undefined)
- viability, T/C (compound 0.0316 µM): 86% and 97.4%
- viability, T/C (compound 0.1 µM): 92.5% and 98.9%
- viability, T/C (compound 0.316 µM): 75.2% and 90.7%
- viability, T/C (compound 1 µM): 65.8% and 86.7%
- viability, T/C (compound 3.16 µM): 49.3% and 53.9%
- viability, T/C (compound 10 µM): 63.4% and 54.3%
- IC50 (curve of compound): > 10 µM

Structure (SMILES): Cn1ncnc1C1c2n[nH]c(=O)c3cc(F)cc(c23)NC1c1ccc(F)cc1 (centres undefined)
- viability, T/C (compound 0.000316 µM): 105% and 92.2%
- viability, T/C (compound 0.001 µM): 95.1% and 80.9%
- viability, T/C (compound 0.00316 µM): 91.4% and 98%
- viability, T/C (compound 0.01 µM): 77.6% and 88.7%
- viability, T/C (compound 0.0316 µM): 77.7% and 85.1%
- viability, T/C (compound 0.1 µM): 93.4% and 82.7%
- IC50 (curve of compound): > 0.1 µM

Structure (SMILES): Nc1ccn(C2OC(CO)C(O)C2(F)F)c(=O)n1 (centres undefined) + NC1CC1c1ccc(-c2cccc(O)c2)cc1
- IC50 [1]: 0.0873 µM
- IC50 [2]: 0.0734 µM
- IC50 [3]: 0.0328 µM
- IC50 [4]: 0.0558 µM
- IC50 [5]: 0.0348 µM
- viability, T/C [26]: 111%
- viability, T/C [27]: 97.9%
- viability, T/C [6]: 104%
- viability, T/C [7]: 72.4%
- viability, T/C [8]: 49.4%
- viability, T/C [9]: 45.2%
- viability, T/C [28]: 85.1%
- viability, T/C [29]: 96.1%
- viability, T/C [10]: 75.3%
- viability, T/C [11]: 69.9%
- viability, T/C [12]: 41%
- viability, T/C [13]: 41.7%
- viability, T/C [30]: 96.1%
- viability, T/C [31]: 84.7%
- viability, T/C [14]: 78.1%
- viability, T/C [15]: 49.2%
- viability, T/C [16]: 41.2%
- viability, T/C [17]: 38.7%
- viability, T/C [32]: 92.3%
- viability, T/C [33]: 95.6%
- viability, T/C [18]: 72.7%
- viability, T/C [19]: 60.1%
- viability, T/C [20]: 39.1%
- viability, T/C [21]: 46.2%
- viability, T/C [34]: 83.5%
- viability, T/C [35]: 69.4%
- viability, T/C [22]: 74.8%
- viability, T/C [23]: 52.5%
- viability, T/C [24]: 32.8%
- viability, T/C [25]: 35.1%

Structure (SMILES): CC(C)c1c(-c2ccccc2)nc2c(C#N)c[nH]n2c1=O
- viability, T/C (compound 0.0316 µM): 90.9% and 92.4%
- viability, T/C (compound 0.1 µM): 103% and 96.3%
- viability, T/C (compound 0.316 µM): 92.6% and 89.1%
- viability, T/C (compound 1 µM): 95% and 106%
- viability, T/C (compound 3.16 µM): 105% and 102%
- viability, T/C (compound 10 µM): 96.2% and 115%
- IC50 (curve of compound): > 10 µM

Structure (SMILES): CCc1c2c(nc3ccc(O)cc13)-c1cc3c(c(=O)n1C2)COC(=O)[C@]3(O)CC
- viability, T/C (compound 0.000949 µM): 91.8% and 92.6%
- viability, T/C (compound 0.003 µM): 106% and 117%
- viability, T/C (compound 0.00949 µM): 101% and 94%
- viability, T/C (compound 0.03 µM): 47.5% and 33.5%
- viability, T/C (compound 0.0949 µM): 16.6% and 32.4%
- viability, T/C (compound 0.3 µM): 26.7% and 28.5%
- IC50 (curve of compound): 0.0284 µM and 0.0218 µM
